Measurements reported in ChEMBL document CHEMBL6114989, “D-morphinan analogs with favorable pharmacokinetic profiles as dual-acting antidepressants” (Eur J Med Chem, 2025).
pEC50, pIC50: −log10 of the molar value. Active and inactive are the calls of the source. No cut-off for these calls is given here.

Key:
[1] = Nephrotoxicity against human HEK293 cells assessed as inhibition of cell proliferation incubated for 48 hrs by celltiter-luminescence assay; assay type: toxicity, cell-based
[2] = Hepatotoxicity against human HepG2 cells assessed as inhibition of cell proliferation incubated for 48 hrs by celltiter-luminescence assay; assay type: toxicity, cell-based
[3] = molecular target: T1, Sodium-dependent noradrenaline transporter (Homo sapiens, UniProt P23975); experiment: Inhibition of NET (unknown origin) at 10 uM relative to control
T1 sequence (P23975 whole entry): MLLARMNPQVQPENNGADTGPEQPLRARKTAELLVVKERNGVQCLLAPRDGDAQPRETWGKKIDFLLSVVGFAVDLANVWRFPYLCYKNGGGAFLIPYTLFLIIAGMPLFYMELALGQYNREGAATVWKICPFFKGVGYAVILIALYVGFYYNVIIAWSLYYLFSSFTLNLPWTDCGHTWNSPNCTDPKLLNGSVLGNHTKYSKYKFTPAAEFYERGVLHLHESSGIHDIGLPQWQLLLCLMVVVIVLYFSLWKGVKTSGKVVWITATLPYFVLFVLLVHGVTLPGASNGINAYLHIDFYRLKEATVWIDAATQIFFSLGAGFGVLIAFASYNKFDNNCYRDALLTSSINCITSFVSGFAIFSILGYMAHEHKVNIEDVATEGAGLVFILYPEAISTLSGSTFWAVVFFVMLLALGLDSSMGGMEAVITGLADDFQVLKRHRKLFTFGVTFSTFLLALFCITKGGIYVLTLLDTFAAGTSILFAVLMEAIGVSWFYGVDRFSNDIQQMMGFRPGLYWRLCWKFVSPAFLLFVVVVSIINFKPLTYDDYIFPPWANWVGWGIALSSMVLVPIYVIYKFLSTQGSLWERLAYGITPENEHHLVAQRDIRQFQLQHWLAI

[4] = molecular target: T2, Glutamate NMDA receptor; GRIN1/GRIN2A (Homo sapiens, UniProt Q05586+Q12879); experiment: Inhibition of human GluN1/GluN2A NMDA receptor expressed in HEK293 cells assessed as reduction in glutamate induced current at -70 mV holding potential by whole-cell patch clamp technique; assay type: cell-based
T2 sequence (Q12879 whole entry, other chains not shown): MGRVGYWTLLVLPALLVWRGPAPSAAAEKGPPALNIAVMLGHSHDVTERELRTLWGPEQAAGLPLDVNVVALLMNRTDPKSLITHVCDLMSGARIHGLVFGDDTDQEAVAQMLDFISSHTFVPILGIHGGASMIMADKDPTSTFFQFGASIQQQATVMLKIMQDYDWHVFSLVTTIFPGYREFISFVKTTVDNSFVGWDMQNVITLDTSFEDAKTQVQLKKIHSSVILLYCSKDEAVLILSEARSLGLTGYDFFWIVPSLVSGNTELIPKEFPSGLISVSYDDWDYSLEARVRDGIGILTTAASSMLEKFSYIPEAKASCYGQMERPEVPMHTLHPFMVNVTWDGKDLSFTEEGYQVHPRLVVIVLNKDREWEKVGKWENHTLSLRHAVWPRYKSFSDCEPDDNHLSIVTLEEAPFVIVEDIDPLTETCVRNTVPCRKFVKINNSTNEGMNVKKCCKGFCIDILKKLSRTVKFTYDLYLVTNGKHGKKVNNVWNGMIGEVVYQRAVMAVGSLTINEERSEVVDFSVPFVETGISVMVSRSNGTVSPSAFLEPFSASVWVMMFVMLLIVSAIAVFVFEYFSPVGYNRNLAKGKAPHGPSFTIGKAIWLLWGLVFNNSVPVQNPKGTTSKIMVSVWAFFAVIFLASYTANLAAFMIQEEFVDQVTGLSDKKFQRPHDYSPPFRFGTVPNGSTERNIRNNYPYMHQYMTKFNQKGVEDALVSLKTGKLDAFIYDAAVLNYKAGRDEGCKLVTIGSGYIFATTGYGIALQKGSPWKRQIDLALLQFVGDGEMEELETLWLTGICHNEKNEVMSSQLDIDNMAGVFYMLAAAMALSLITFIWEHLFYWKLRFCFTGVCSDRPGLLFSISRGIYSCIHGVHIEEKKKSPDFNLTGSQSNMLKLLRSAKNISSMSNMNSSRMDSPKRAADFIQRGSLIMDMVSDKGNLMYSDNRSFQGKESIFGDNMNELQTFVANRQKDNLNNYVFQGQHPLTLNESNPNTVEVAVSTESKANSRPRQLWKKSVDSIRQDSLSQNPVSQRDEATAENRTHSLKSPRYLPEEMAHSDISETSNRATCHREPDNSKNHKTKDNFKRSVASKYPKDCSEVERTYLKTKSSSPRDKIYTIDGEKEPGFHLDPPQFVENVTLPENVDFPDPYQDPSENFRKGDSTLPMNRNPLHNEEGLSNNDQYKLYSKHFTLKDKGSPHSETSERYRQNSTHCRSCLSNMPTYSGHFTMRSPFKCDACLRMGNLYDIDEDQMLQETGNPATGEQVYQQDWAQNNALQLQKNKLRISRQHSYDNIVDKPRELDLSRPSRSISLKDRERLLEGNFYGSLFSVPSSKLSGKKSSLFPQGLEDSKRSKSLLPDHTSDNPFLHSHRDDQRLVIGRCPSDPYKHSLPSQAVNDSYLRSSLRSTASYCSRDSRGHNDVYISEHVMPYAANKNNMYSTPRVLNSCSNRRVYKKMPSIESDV

Mu-type opioid receptor [5] = molecular target: T3, Mu-type opioid receptor (Homo sapiens, UniProt P35372); experiment: Agonist activity at human mu-opioid receptor stably expressed in CHO cells assessed as inhibition of forskolin-induced cAMP accumulation at 30 uM preincubated with compound for 10 mins followed by forskolin induction and measured after 30 mins by LANCE Ultra cAMP assay relative to control; assay type: functional, cell-based; details: time 40.0 min
T3 sequence (P35372 whole entry): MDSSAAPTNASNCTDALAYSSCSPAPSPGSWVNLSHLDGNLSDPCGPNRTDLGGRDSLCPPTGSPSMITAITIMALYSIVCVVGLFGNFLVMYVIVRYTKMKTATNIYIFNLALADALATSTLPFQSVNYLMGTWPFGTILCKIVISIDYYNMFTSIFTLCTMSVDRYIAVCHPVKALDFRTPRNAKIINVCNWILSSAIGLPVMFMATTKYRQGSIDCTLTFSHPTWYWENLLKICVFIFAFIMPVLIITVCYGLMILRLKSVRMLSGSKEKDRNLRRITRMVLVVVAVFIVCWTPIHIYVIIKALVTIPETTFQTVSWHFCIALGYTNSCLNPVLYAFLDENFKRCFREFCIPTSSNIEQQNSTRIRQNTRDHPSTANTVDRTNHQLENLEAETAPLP

[6] = molecular target: T4, Sodium-dependent dopamine transporter (Homo sapiens, UniProt Q01959); experiment: Inhibition of DAT (unknown origin) at 10 uM relative to control
T4 sequence (Q01959 whole entry): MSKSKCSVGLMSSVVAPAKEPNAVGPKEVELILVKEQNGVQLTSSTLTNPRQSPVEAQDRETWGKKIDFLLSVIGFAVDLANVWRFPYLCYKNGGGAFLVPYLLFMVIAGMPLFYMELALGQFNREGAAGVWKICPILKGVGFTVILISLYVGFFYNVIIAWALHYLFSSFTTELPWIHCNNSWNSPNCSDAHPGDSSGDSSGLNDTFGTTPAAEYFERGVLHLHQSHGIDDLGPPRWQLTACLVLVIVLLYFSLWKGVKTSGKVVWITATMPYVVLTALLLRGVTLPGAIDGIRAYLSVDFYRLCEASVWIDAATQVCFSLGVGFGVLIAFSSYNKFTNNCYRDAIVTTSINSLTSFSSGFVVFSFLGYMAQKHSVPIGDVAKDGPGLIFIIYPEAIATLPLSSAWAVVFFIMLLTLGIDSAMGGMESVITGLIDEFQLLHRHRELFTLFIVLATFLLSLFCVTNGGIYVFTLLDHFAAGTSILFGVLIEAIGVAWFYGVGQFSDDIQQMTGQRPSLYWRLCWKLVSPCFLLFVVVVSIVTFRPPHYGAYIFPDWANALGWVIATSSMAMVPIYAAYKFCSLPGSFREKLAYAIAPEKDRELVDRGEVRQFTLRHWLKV

[7] = molecular target: Sodium-dependent serotonin transporter (Homo sapiens, UniProt P31645)
Chain of Sodium-dependent serotonin transporter (P31645 whole entry): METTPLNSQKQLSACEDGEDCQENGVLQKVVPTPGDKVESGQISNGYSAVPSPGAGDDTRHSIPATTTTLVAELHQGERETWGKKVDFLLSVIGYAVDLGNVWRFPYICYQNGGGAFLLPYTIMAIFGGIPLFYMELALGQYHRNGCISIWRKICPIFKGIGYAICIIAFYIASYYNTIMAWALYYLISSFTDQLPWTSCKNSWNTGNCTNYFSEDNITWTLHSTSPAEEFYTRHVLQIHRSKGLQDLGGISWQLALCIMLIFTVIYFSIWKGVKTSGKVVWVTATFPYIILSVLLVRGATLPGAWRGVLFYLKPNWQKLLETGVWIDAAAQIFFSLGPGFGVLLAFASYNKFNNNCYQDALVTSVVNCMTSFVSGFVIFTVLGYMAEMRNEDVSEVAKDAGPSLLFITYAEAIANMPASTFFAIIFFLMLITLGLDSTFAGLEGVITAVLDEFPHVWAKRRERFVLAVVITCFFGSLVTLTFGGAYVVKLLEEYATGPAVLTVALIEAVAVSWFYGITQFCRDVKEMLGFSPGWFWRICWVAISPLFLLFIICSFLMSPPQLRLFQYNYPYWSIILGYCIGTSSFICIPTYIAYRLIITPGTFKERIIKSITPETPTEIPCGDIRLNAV

[8] = molecular target: T1, Sodium-dependent noradrenaline transporter; experiment: Inhibition of human NET
[9] = Selectivity index, ratio of IC50 for inhibition of human GluN1/GluN2A NMDA receptor expressed in HEK293 cells to IC50 for inhibition of SERT (unknown origin); assay type: cell-based
Mu-type opioid receptor [10] = molecular target: T3, Mu-type opioid receptor; experiment: Agonist activity at human mu-opioid receptor stably expressed in CHO cells assessed as inhibition of forskolin-induced cAMP accumulation preincubated with compound for 10 mins followed by forskolin induction and measured after 30 mins by LANCE Ultra cAMP assay; assay type: functional, cell-based
[11] = molecular target: T2, Glutamate NMDA receptor; GRIN1/GRIN2A; experiment: Antagonist activity at human GluN1/GluN2A NMDA receptor expressed in HEK293 cells assessed as reduction in glutamate induced current at -70 mV holding potential by whole-cell patch clamp technique; assay type: cell-based
[12] = AUC (0 to t) in ICR mouse at 10 mg/kg, ip measured upto 24 hrs by LC-MS/MS analysis; assay type: ADME, organism-based; details: in vivo
Mus musculus = experiment: Antidepressant activity in ip dosed C57BL/6J mouse assessed as reduction in of immobility time by forced swim test; assay type: functional, organism-based; details: dose 10-20 mg/kg
[13] = Metabolic stability in mouse liver microsome assessed as hepatic extraction ratio in presence of NADPH measured upto 60 mins by LC-MS/MS analysis; assay type: ADME; details: liver microsomes, read-out: ERH
[14] = Half life in ICR mouse at 10 mg/kg, ip measured upto 24 hrs by LC-MS/MS analysis; assay type: ADME, organism-based; details: in vivo
[15] = AUC (0 to t) in ICR mouse at 10 mg/kg, po measured upto 24 hrs by LC-MS/MS analysis; assay type: ADME, organism-based; details: in vivo
[16] = AUC (0 to infinity) in ICR mouse at 10 mg/kg, ip measured upto 24 hrs by LC-MS/MS analysis; assay type: ADME, organism-based; details: in vivo
[17] = MRT (0 to t) in ICR mouse at 10 mg/kg, po measured upto 24 hrs by LC-MS/MS analysis; assay type: ADME, organism-based; details: in vivo
[18] = Metabolic stability in mouse liver microsome assessed as intrinsic clearance in presence of NADPH measured upto 60 mins by LC-MS/MS analysis; assay type: ADME; details: liver microsomes, read-out: CLH
[19] = Cmax in ICR mouse at 10 mg/kg, po measured upto 24 hrs by LC-MS/MS analysis; assay type: ADME, organism-based; details: in vivo
[20] = Cmax in ICR mouse at 10 mg/kg, ip measured upto 24 hrs by LC-MS/MS analysis; assay type: ADME, organism-based; details: in vivo
[21] = Half life in ICR mouse at 10 mg/kg, po measured upto 24 hrs by LC-MS/MS analysis; assay type: ADME, organism-based; details: in vivo
[22] = Tmax in ICR mouse at 10 mg/kg, po measured upto 24 hrs by LC-MS/MS analysis; assay type: ADME, organism-based; details: in vivo
[23] = Tmax in ICR mouse at 10 mg/kg, ip measured upto 24 hrs by LC-MS/MS analysis; assay type: ADME, organism-based; details: in vivo
[24] = Metabolic stability in mouse liver microsome assessed as half life in presence of NADPH measured upto 60 mins by LC-MS/MS analysis; assay type: ADME; details: liver microsomes
[25] = AUC (0 to infinity) in ICR mouse at 10 mg/kg, po measured upto 24 hrs by LC-MS/MS analysis; assay type: ADME, organism-based; details: in vivo
[26] = MRT (0 to infinity) in ICR mouse at 10 mg/kg, ip measured upto 24 hrs by LC-MS/MS analysis; assay type: ADME, organism-based; details: in vivo
[27] = Metabolic stability in mouse liver microsome assessed as hepatic clearance in presence of NADPH measured upto 60 mins by LC-MS/MS analysis; assay type: ADME; details: liver microsomes
[28] = molecular target: T4, Sodium-dependent dopamine transporter; experiment: Inhibition of DAT (unknown origin)

Compound | inhibition [3] | pIC50 [4] | inhibition (Mu-type opioid receptor [5]) [%] | inhibition [6] | pIC50 [7] | also measured
Cc1ccc(Sc2ccccc2N2CCNCC2)c(C)c1 [VORTIOXETINE] |  |  |  |  |  | IC50 at 48 h [1]: 12.2 µM; IC50 at 48 h [2]: 8.1 µM
CN1CC[C@@]23CCCC[C@@H]2[C@@H]1Cc1ccc(NC=O)cc13 | inactive | 5.51 | 33 | 6% | 3.57 | 
CCc1ccc2c(c1)[C@]13CCCC[C@@H]1[C@H](C2)N(C)CC3 |  | 5.29 | 23 | 13% | 3.62 | pIC50 [8]: 5.31
CCN1CC[C@@]23CCCC[C@@H]2[C@@H]1Cc1ccccc13 | 23% | 5.31 |  | inactive | 1.95 | inhibition (Mu-type opioid receptor [5]; filed as agonist): 40%
Cc1ccc2c(c1)[C@]13CCCC[C@@H]1[C@H](C2)N(C)CC3 [DIMEMORFAN] |  | 5.53 | 21 | inactive | 3.83 | Ratio IC50 [9]: 20; pIC50 [8]: 5.91
CN1CC[C@@]23CCCC[C@@H]2[C@@H]1Cc1ccc(C(N)=O)cc13 | 12% | 5.52 |  | inactive | 3.91 | pEC50 (Mu-type opioid receptor [10]): 4.60
CNC(=O)c1ccc2c(c1)[C@]13CCCC[C@@H]1[C@H](C2)N(C)CC3 | 12% | 4.70 | 25 | 15% | 3.47 | 
COc1ccc2c(c1)[C@]13CCCC[C@@H]1[C@H](C2)NCC3 | 44% | 6.52 | 23 | 4% | 2.93 | 
CCOc1ccc2c(c1)[C@]13CCCC[C@@H]1[C@H](C2)N(C)CC3 | 33% | 5.74 | 26 | 10% | 4.82 | 
c1ccc2c(c1)C[C@@H]1NCC[C@]23CCCC[C@H]13 | 14% |  |  | 20% | 2.08 | inhibition (Mu-type opioid receptor [5]; filed as agonist): 95%; pIC50 [11]: 6.37
CN1CC[C@@]23CCCC[C@@H]2[C@@H]1Cc1ccc(C(=O)NC2CC2)cc13 | inactive | 5.03 |  | 6% | 2.25 | inhibition (Mu-type opioid receptor [5]; filed as agonist): 60%
CC(=O)Nc1ccc2c(c1)[C@]13CCCC[C@@H]1[C@H](C2)N(C)CC3 | inactive | 5.66 | 36 | 19% | 3.36 | AUC(0-t) at 24 h [12]: 1080 ng·h/mL; Activity (Mus musculus): Dose-dependent-effect; hepatic extraction ratio at 1 h [13]: 0.281; half-life [14]: 44.4 min; AUC(0-t) at 24 h [15]: 1220 ng·h/mL; AUC(0-inf) [16]: 1080 ng·h/mL; MRT last at 24 h [17]: 62.4 min; CLint scaled [18]: 35.1 mL/min/kg; Cmax [19]: 1040 ng/mL; Cmax [20]: 1680 ng/mL; half-life [21]: 51.6 min; Tmax [22]: 11.4 min; Tmax [23]: 4.8 min; half-life [24]: 267 min; AUC(0-inf) [25]: 1220 ng·h/mL; MRT inf [26]: 40.8 min; CLhep predicted [27]: 25.3 mL/min/kg
CCN1CC[C@@]23CCCC[C@@H]2[C@@H]1Cc1ccc(O)cc13 |  | 6.55 | 9 | 12% | 2.27 | pIC50 [8]: 4.98
CCOc1ccc2c(c1)[C@]13CCCC[C@@H]1[C@H](C2)N(CC)CC3 | 26% | 5.89 | 4 | 6% | 2.70 | 
CCc1ccc2c(c1)[C@]13CCCC[C@@H]1[C@H](C2)NCC3 |  | 6.30 | 33 | inactive | 2.72 | pIC50 [8]: 5.33
CCOc1ccc2c(c1)[C@]13CCCC[C@@H]1[C@H](C2)NCC3 | 12% | 6.47 | 24 | 16% | 3.33 | 
CCc1ccc2c(c1)[C@]13CCCC[C@@H]1[C@H](C2)N(CC)CC3 | 24% | 5.01 | 10 | 5% | 2.64 | 
c1ccc2cc([C@]34CNC[C@H]3C4)ccc2c1 [CENTANAFADINE] |  |  |  |  | 4.05 | Activity (Mu-type opioid receptor [5]): inactive; pIC50 [28]: 7.22; pIC50 [8]: 8.00
CNc1ccc2c(c1)[C@]13CCCC[C@@H]1[C@H](C2)N(C)CC3 | 25% | 5.21 | 14 | 10% | 3.24 | 
CN1CC[C@@]23CCCC[C@@H]2[C@@H]1Cc1ccc(O)cc13 [DEXTRORPHAN] |  | 6.55 |  | inactive | 3.20 | pIC50 [8]: 5.55
Cc1ccc2c(c1)[C@]13CCCC[C@@H]1[C@H](C2)NCC3 |  | 6.55 | 16 | inactive | 2.68 | pIC50 [8]: 5.24
CC(=O)c1ccc2c(c1)[C@]13CCCC[C@@H]1[C@H](C2)N(C)CC3 | inactive | < 4.40 |  | inactive | 3.89 | inhibition (Mu-type opioid receptor [5]; filed as agonist): 87%
CN1CC[C@@]23CCCC[C@@H]2[C@@H]1Cc1ccc(C(C)(C)O)cc13 | inactive | < 4.40 | 11 | inactive | 2.05 | 
CN1CC[C@@]23CCCC[C@@H]2[C@@H]1Cc1ccc(NC(=O)c2ccccc2)cc13 | inactive | 5.66 | 14 | 15% | 2.12 | 
CC(O)c1ccc2c(c1)[C@]13CCCC[C@@H]1[C@H](C2)N(C)CC3 (some centres not stated) | 39% |  | 8 | inactive | 2.96 | 
CN1CC[C@@]23CCCC[C@@H]2[C@@H]1Cc1ccccc13 |  | 5.53 | 39 | 15% | 3.48 | pIC50 [8]: 4.76
COC(=O)c1ccc2c(c1)[C@]13CCCC[C@@H]1[C@H](C2)N(C)CC3 | 12% | 5.32 |  | inactive | 4.77 | inhibition (Mu-type opioid receptor [5]; filed as agonist): 88%
